Test results published in patent US7037495B1, “Antimicrobial compositions” (priority 1999, dated 2006).

Legend:
Type in all cases: cell-based, Escherichia coli
[1] = system: TOP10 E. coli + bcrA; test: MIC determination by microtitre broth dilution method, TOP10 E. coli + bcrA; settings: for Growth of TOP10 E. coli + bcrA: 24 h at 37° C.
Description: (§1) MIC Determination by Microtitre Broth Dilution Method
(§2) TOP10 E. coli with or without (O) bcrA were grown to a concentration of 2×10^4 cfu/ml (bcrA+was grown in the presence of 100 μg/ml ampicillin to select for the pBAD-TOPO vector) in RPMI medium (Sigma) in the presence of 0.002% L-arabinose, as the inducer of the bcrA gene. 100 μl TOP10 E. coli±bcrA was dispensed into 96 well microtitre plate (Sigma) to give a final concentration of 1×10^4 cfu/ml. […] The plates were incubated for 24 h at 37° C. and scored by growth or no growth.

[2] = system: TOP10 E. coli − bcrA; test: MIC determination by microtitre broth dilution method, TOP10 E. coli − bcrA; settings: 24 h at 37° C.
Description: as §1, §2

[3] = system: TOP10 E. coli + bcrA; test: Phage clone activity against resistance of TOP10 E. coli + bcrA to nalidixic acid; settings: for Nalidixic acid MIC: in the presence of phage (neat and diluted 1:10), TOP10 E. coli + bcrA, 24 h at 37° C.
Description: TOP10 E. coli+bcrA were grown to a concentration of 2×10^4 cfu/ml in RPMI medium (Sigma) containing 100 μg/ml ampicillin (to select for the pBAD-TOPO vector) in the presence of 0.002% L-arabinose, as the inducer of the bcrA gene. 100 μl TOP10 E. coli+bcrA, at a final concentration of 1×10^4 cfu/ml, were dispensed into 96 well microtitre plate (Sigma) in the presence of neat phage and phage diluted 1:10 (see table below). Serial doubling dilutions nalidixic acid was added to each well, with the concentration ranging from 128 to 0.25 μg/ml. A control with just the media was set up. The plates were incubated for 24 h at 37° C. Six phage clones were tested.

[4] = TOP10 E. coli + bcrA versus − bcrA

Compound	Growth of TOP10 E. coli + bcrA ([1]; antibiotic 0.125 μg/ml)	Growth of TOP10 E. coli + bcrA ([1]; antibiotic 0.25 μg/ml)	Growth of TOP10 E. coli + bcrA ([1]; antibiotic 0.5 μg/ml)	Growth of TOP10 E. coli + bcrA ([1]; antibiotic 1 μg/ml)	Growth of TOP10 E. coli + bcrA ([1]; antibiotic 2 μg/ml)	Growth of TOP10 E. coli + bcrA ([1]; antibiotic 4 μg/ml)	Growth of TOP10 E. coli + bcrA ([1]; antibiotic 8 μg/ml)	Growth of TOP10 E. coli + bcrA ([1]; antibiotic 16 μg/ml)	Growth of TOP10 E. coli + bcrA ([1]; antibiotic 32 μg/ml)	Growth of TOP10 E. coli + bcrA ([1]; antibiotic 64 μg/ml)	Growth of TOP10 E. coli + bcrA ([1]; antibiotic 128 μg/ml)	Growth of TOP10 E. coli − bcrA ([2]; antibiotic 0.125 μg/ml)	Growth of TOP10 E. coli − bcrA ([2]; antibiotic 0.25 μg/ml)	Growth of TOP10 E. coli − bcrA ([2]; antibiotic 0.5 μg/ml)	Growth of TOP10 E. coli − bcrA ([2]; antibiotic 1 μg/ml)	Growth of TOP10 E. coli − bcrA ([2]; antibiotic 2 μg/ml)	Growth of TOP10 E. coli − bcrA ([2]; antibiotic 4 μg/ml)	Growth of TOP10 E. coli − bcrA ([2]; antibiotic 8 μg/ml)	Growth of TOP10 E. coli − bcrA ([2]; antibiotic 16 μg/ml)	Growth of TOP10 E. coli − bcrA ([2]; antibiotic 32 μg/ml)	also measured
O=C(O)c1cn(C2CC2)c2cc(N3CCNCC3)c(F)cc2c1=O [Ciprofloxacin]	+	−	−	−	−	−	−	−	−	−	−	+	−	−	−	−	−	−	−	−	resistance conferred by the bcrA gene in TOP10 E. coli [1, 4]: No resistance; Growth of TOP10 E. coli − bcrA ([2]; antibiotic 64 μg/ml): −; Growth of TOP10 E. coli − bcrA ([2]; antibiotic 128 μg/ml): −
CN(C)[C@@H]1C(O)=C(C(N)=O)C(=O)[C@@]2(O)C(O)=C3C(=O)c4c(O)cccc4[C@@](C)(O)[C@H]3C[C@@H]12 [Tetracycline]	+	+	+	+	+	+	−	−	−	−	−	+	+	+	+	+	−	−	−	−	Growth of TOP10 E. coli − bcrA ([2]; antibiotic 64 μg/ml): −; Growth of TOP10 E. coli − bcrA ([2]; antibiotic 128 μg/ml): −
AIISFGFMAFFGSVV [Peptide 1]																					Nalidixic acid MIC [3]: 2 µg/mL
CCn1cc(C(=O)O)c(=O)c2ccc(C)nc21 [Nalidixic Acid]	+	+	+	+	+	+	+	−	−	−	−	+	+	+	+	+	−	−	−	−	difference in MIC in TOP10 E. coli ± bcrA ([1]; TOP10 E. coli + bcrA versus − bcrA, doubling dilutions): three well difference; MIC ([3]; Escherichia coli, 24 h, read-out: Nalidixic acid MIC): 16 µg/mL; Growth of TOP10 E. coli − bcrA ([2]; antibiotic 64 μg/ml): −; Growth of TOP10 E. coli − bcrA ([2]; antibiotic 128 μg/ml): −
HRLDRMVASFAFHR [Peptide 3]																					Nalidixic acid MIC [3]: 8 µg/mL
N=C(NCCCCCCNC(=N)NC(=N)Nc1ccc(Cl)cc1)NC(=N)Nc1ccc(Cl)cc1 [Chlorohexadine]	+	+	+	+	+	+	+	−	−	−	−	+	+	+	+	+	+	+	−	−	resistance conferred by the bcrA gene in TOP10 E. coli [1, 4]: No resistance; Growth of TOP10 E. coli − bcrA ([2]; antibiotic 64 μg/ml): −; Growth of TOP10 E. coli − bcrA ([2]; antibiotic 128 μg/ml): −
SVVIFPLWQTVMGYT [Peptide 2]																					Nalidixic acid MIC [3]: 16 µg/mL
